Measurements taken from ChEMBL document CHEMBL1151058, “Synthesis and structure-activity relationships of novel THF 1-methylcarbapenems” (1997).
In brackets after ≈: the same amount, converted by molar mass.

Columns and labels:
Assay type in all cases: functional
[1] = organism: Sus scrofa; assay: Relative hydrolysis was measured by hog renal dehydropeptidase (DHP).
[2] = test system: Morganella morganii; assay: In vitro minimum inhibitory concentration required against Morganella morganii GC 2213 strain
[3] = test system: Pseudomonas aeruginosa; assay: In vitro minimum inhibitory concentration required against Pseudomonas aeruginosa ATCC 27853 strain
[4] = test system: Stenotrophomonas maltophilia; assay: In vitro minimum inhibitory concentration required against Xanthomonas maltophilia GC 562 strain
[5] = test system: Acinetobacter calcoaceticus; assay: In vitro minimum inhibitory concentration required against Acinetobacter calcoaceticus GC 756 strain
[6] = test system: Pseudomonas aeruginosa; assay: In vitro minimum inhibitory concentration required against Pseudomonas aeruginosa GC 1544 oprD- strain
[7] = test system: Enterococcus faecium; assay: In vitro minimum inhibitory concentration required against Enterococcus faecium GC 1182 strain
[8] = test system: Enterobacter cloacae; assay: In vitro minimum inhibitory concentration required against Enterobacter cloacae GC 2209 strain
[9] = test system: Citrobacter freundii; assay: In vitro minimum inhibitory concentration required against Citrobacter freundii GC 2211 strain
[10] = test system: Enterococcus faecalis; assay: In vitro minimum inhibitory concentration required against Enterococcus faecalis GC 842 strain
[11] = test system: Escherichia coli; assay: In vitro minimum inhibitory concentration required against Escherichia coli ATCC 25922 strain
[12] = test system: Escherichia coli; assay: In vitro minimum inhibitory concentration required against Escherichia coli GC 1792 strain
[13] = test system: Escherichia coli; assay: In vitro minimum inhibitory concentration required against Escherichia coli GC 2205 strain
[14] = test system: Staphylococcus aureus; assay: In vitro minimum inhibitory concentration required against Staphylococcus aureus GC 2220 MRSA strain
[15] = test system: Staphylococcus aureus; assay: In vitro minimum inhibitory concentration required against Staphylococcus aureus ATCC 29213 strain
[16] = test system: Escherichia coli; assay: Effective single oral dose required for inhibition of Escherichia coli in mice
[17] = test system: Escherichia coli; assay: Effective single subcutaneous dose required for inhibition of Escherichia coli in mice
[18] = Acinetobacter calcoaceticus, read-out: MIC
[19] = Enterococcus faecium, read-out: MIC
[20] = Enterococcus faecalis, read-out: MIC

Compound	Relative hydrolysis [1]	MIC [2]	MIC [3]	MIC [4]	MIC [5, 18]	MIC [6]	MIC [7, 19]	MIC [8]	MIC [9]	MIC [10, 20]	MIC [11]	MIC [12]	MIC [13]	MIC [14]	MIC [15]	other results
C[C@H]1C(S[C@@H]2CO[C@H](CN)C2)=C(C(=O)O)N2C(=O)[C@H]([C@@H](C)O)C12 (stereo not given in full)	7.3	0.5 µg/mL (≈ 1.46 µM)	8 µg/mL (≈ 23.4 µM)	> 128 µg/mL	2 µg/mL (≈ 5.84 µM)	16 µg/mL (≈ 46.7 µM)	128 µg/mL (≈ 374 µM)	≤ 0.06 µg/mL	0.12 µg/mL (≈ 0.35 µM)	4 µg/mL (≈ 11.7 µM)	≤ 0.06 µg/mL	≤ 0.06 µg/mL	0.12 µg/mL (≈ 0.35 µM)	4 µg/mL (≈ 11.7 µM)	≤ 0.06 µg/mL	
C[C@H]1C(SC2COC(CN)C2)=C(C(=O)O)N2C(=O)[C@H]([C@@H](C)O)C12 (stereo in doubt; 3a)	19															
C[C@H]1C(S[C@H]2CO[C@@H](CN)C2)=C(C(=O)O)N2C(=O)[C@H]([C@@H](C)O)C12 (stereo not given in full)	10	0.5 µg/mL (≈ 1.46 µM)	16 µg/mL (≈ 46.7 µM)	> 128 µg/mL	2 µg/mL (≈ 5.84 µM)	32 µg/mL (≈ 93.5 µM)	> 128 µg/mL	≤ 0.06 µg/mL	0.12 µg/mL (≈ 0.35 µM)	4 µg/mL (≈ 11.7 µM)	≤ 0.06 µg/mL	≤ 0.06 µg/mL	≤ 0.06 µg/mL	8 µg/mL (≈ 23.4 µM)	≤ 0.06 µg/mL	
C[C@H]1C(S[C@H]2COC[C@H]2CN)=C(C(=O)O)N2C(=O)[C@H]([C@@H](C)O)C12 (stereo not given in full)	< 1							≤ 0.06 µg/mL			≤ 0.06 µg/mL	≤ 0.06 µg/mL			≤ 0.06 µg/mL	
C[C@@H](O)[C@H]1C(=O)N2C(C(=O)O)=C(SCCNC=N)C[C@H]12 [IMIPENEM ANHYDROUS]	100							≤ 0.06 µg/mL				≤ 0.06 µg/mL			≤ 0.06 µg/mL	ED50 ([16]; Escherichia coli, po, read-out: ED50): 79 mg/kg; ED50 ([17]; Escherichia coli, sc, read-out: ED50): 0.67 mg/kg
C[C@H]1C(S[C@H]2CO[C@H](CN)C2)=C(C(=O)O)N2C(=O)[C@H]([C@@H](C)O)C12 (stereo not given in full)		0.25 µg/mL (≈ 0.73 µM)	2 µg/mL (≈ 5.84 µM)	> 128 µg/mL	1 µg/mL (≈ 2.92 µM)	8 µg/mL (≈ 23.4 µM)	> 128 µg/mL	≤ 0.06 µg/mL	≤ 0.06 µg/mL	2 µg/mL (≈ 5.84 µM)	≤ 0.06 µg/mL	≤ 0.06 µg/mL	≤ 0.06 µg/mL	8 µg/mL (≈ 23.4 µM)	≤ 0.06 µg/mL	
C[C@H]1C(S[C@H]2CCO[C@@H]2CN)=C(C(=O)O)N2C(=O)[C@H]([C@@H](C)O)C12 (stereo not given in full)	18	2 µg/mL (≈ 5.84 µM)	16 µg/mL (≈ 46.7 µM)	> 64 µg/mL		32 µg/mL (≈ 93.5 µM)	> 64 µg/mL	0.5 µg/mL (≈ 1.46 µM)	1 µg/mL (≈ 2.92 µM)	8 µg/mL (≈ 23.4 µM)	0.5 µg/mL (≈ 1.46 µM)	0.5 µg/mL (≈ 1.46 µM)	0.25 µg/mL (≈ 0.73 µM)	4 µg/mL (≈ 11.7 µM)	0.06 µg/mL (≈ 0.175 µM)	
C[C@H]1C(SC2COC(CN)C2)=C(C(=O)O)N2C(=O)[C@H]([C@@H](C)O)C12 (stereo in doubt; 3b)																ED50 [16]: 3.5 mg/kg; MIC [5]: 2 µg/mL (≈ 5.84 µM); MIC [7]: 128 µg/mL (≈ 374 µM); MIC [10]: 2 µg/mL (≈ 5.84 µM); ED50 [17]: 0.28 mg/kg
